Experiments:
[1] = system: Dunkin-Hartley guinea pigs; experiment: Effect on the guinea pig cough model (ATP or histamine plus citric acid induced cough); type: in vivo; conditions: oral administration 30 minutes to 1 hour before inducing cough, 250 uM ATP or 0.6 mM histamine then 0.5 M citric acid nebulized, FIG. 1 to FIG. 3 (doses 5.1-92 mg/kg)
Protocol: In this test, dextromethorphan (purchased from Shanghai Send Pharmaceutical Technology Co., Ltd.) was used as a positive control compound. A clinical control compound having the following structure was employed, and it was prepared according to the method described in WO 2008/040652 A1:
Test animals were 300-350 g Dunkin-Hartley guinea pigs (purchased from Shanghai Jiagan Biotechnology Co., Ltd). After being purchased and adaptively fed for one week, the animals were randomly divided into groups based on body weight, each test group comprising 10-15 test animals The vehicle (a 0.5% CMCNa solution), the test compounds, the positive control compound (dextromethorphan) or the clinical control compound were orally administrated (compounds at test dosages were respectively added to a 0.5% CMCNa solution, uniformly dispersed through thorough ultrasonic treatment; the solution was vortex mixed again before administration to each animal, and the test dosage ranged from 1 mg/kg to 100 mg/kg). Administration was performed 30 minutes to 1 hour before inducing cough.
Method of inducing cough: test animals were put in a body pneumotachograph (Buxco) and allowed to stand for several minutes. […] Starting from the nebulization of citric acid, the number of coughs of the animals in 10 minutes were recorded by employing a small animal pulmonary function detector (Buxco).

P2X3 [2] = biological target: T1, P2X3 (Homo sapiens, UniProt P56373); experiment: Inhibition on the P2X3-mediated current in 1321N1 cell line stably transfected with P2X3 (whole-cell patch clamp); type: cell-based; conditions: 1321N1 P2X3 stable transfected cells, clamping potential -60 mV, 5 minutes pre-treatment, Hill equation fit; read-out: IC50, inhibition of P2X3-mediated current induced by 10 μM Na2ATP
T1 construct: expressed in transfected cells; host or cells: 1321N1 cells, stably transfected
T1 sequence (P56373 1-397): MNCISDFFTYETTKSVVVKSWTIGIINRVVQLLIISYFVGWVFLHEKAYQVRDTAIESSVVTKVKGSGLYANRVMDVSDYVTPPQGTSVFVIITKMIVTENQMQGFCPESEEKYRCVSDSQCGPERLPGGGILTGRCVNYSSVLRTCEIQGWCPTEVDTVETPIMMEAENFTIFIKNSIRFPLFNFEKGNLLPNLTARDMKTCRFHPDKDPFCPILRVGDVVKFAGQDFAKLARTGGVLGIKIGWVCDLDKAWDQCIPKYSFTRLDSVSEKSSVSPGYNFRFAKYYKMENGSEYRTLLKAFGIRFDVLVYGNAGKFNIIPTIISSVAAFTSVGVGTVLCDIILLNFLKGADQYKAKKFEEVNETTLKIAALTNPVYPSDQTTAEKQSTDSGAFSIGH
Protocol: Membrane current was recorded by employing HEKA EPC-10 patch clamp amplifier and PATCHMASTER acquisition system. 1321N1 P2X3 stable transfected cells were transferred to an about 1 ml bath embedded in an inverted microscope platform, and an extracellular fluid (2 mM CaCl2, 1 mM MgCl2, 5 mM KCl, 155 mM NaCl, 12 mM glucose and 10 mM HEPES (pH=7.4)) was perfused by using a gravitational perfusion system. The P2X3-mediated current of a single cell was recorded in a whole cell recording mode. After formation of a gigaseal and rapture of the membrane, clamping potential was set at −60 mV. 10 μM Na2ATP was perfused for 5 seconds, and the P2X3-mediated current induced at this point was taken as a control current. The cells were then treated with a solution of compound 66 at a specific concentration (prepared with the extracellular fluid) for 5 minutes. The solution of compound 66 at this concentration and 10 μM Na2ATP were co-applied to induce a cell current (see FIG. 4 for the effect of the compound on the current), and an inhibition rate relative to the control current was calculated according to the following formula:
(§1) Inhibition Rate Relative to the Control Current=(1−I2/I1)*100%
(§2) wherein I1 represents the control current, and I2 represents the current after application of compound 66. […]

P2X3 [3] = biological target: T2, P2X3 (Rattus norvegicus, UniProt P49654); experiment: Inhibition on the P2X3-mediated current in ex vivo cultured rat dorsal root ganglion (whole-cell patch clamp); type: cell-based; conditions: primary cells of rat DRG, clamping potential -60 mV, 5 minutes pre-treatment, Hill equation fit; read-out: IC50, inhibition of P2X3-mediated current induced by 30 μM a,b-Me ATP
T2 construct: The primary cells of rat DRG were transferred; endogenous in cells; host or cells: primary rat dorsal root ganglion cells, cultured ex vivo
T2 sequence (P49654 1-397): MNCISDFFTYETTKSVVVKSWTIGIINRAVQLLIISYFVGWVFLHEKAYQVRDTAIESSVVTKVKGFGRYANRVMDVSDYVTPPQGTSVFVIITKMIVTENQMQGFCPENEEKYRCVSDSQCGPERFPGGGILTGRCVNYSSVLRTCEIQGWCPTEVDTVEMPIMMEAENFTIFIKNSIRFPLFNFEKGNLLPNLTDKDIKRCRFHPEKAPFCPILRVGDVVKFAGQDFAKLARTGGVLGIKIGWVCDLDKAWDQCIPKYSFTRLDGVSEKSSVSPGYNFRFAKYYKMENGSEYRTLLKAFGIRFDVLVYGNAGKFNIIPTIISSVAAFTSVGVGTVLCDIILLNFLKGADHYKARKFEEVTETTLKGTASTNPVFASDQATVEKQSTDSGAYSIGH
Protocol: Membrane current was recorded by employing HEKA EPC-10 patch clamp amplifier and PATCHMASTER acquisition system. The primary cells of rat DRG were transferred to an about 1 ml bath embedded in an inverted microscope platform, and an extracellular fluid (2 mM CaCl2, 1 mM MgCl2, […] KCl, 155 mM NaCl, 12 mM glucose and 10 mM HEPES (pH=7.4)) was perfused by using a gravitational perfusion system. The P2X3-mediated current of a single cell was recorded in a whole cell recording mode. After formation of a gigaseal and rapture of the membrane, clamping potential was set at −60 mV. 30 μM a,b-Me ATP (also known as “α,β-meATP”) was perfused for 5 seconds, and the P2X3-mediated current induced at this point was taken as a control current. The cells were then treated with a solution of compound 66 at a specific concentration (prepared with the extracellular fluid) for 5 minutes. The solution of compound 66 at this concentration and 30 μM a,b-Me ATP were co-applied to induce a cell current (see FIG. 6 for the effect of the compound on the current), and an inhibition rate relative to the control current was calculated according to the following formula:
as §1, §2

IC50 (P2X3 [2]) [nM]	IC50 (P2X3 [3]) [nM]	Compound	antitussive effect (number of coughs in 10 minutes) [1]
26.2	28.3	C#Cc1cc(Oc2cnc(N)nc2N)c(C(C)C)cn1 [Compound 66]	significant antitussive effect, which was better than that of the clinical control compound
		CNc1cc(Oc2cnc(N)nc2N)c(C(C)C)cn1 [Compound 22]	significant antitussive effect, which was better than that of the clinical control compound

Reference: patent publication US20220211703A1, “METHOD FOR TREATING COUGH BY USING DIAMINOPYRIMIDINE COMPOUND” (BEIJING TIDE PHARMACEUTICAL CO., LTD., priority 2019, published 2022)
